Measured values as given in patent US20240343734A1, “NOVEL SMALL MOLECULE INHIBITORS OF PUS7 AND USES THEREOF” (City of Hope, priority 2021, published 2024).

Tested on: GSCs
Test: GSC growth (several lines, stated for GSCs in general)
Format: cell-based, human
Conditions: 0.5, 1, 2, 4, 8 μM
Method: GSCs were derived from newly diagnosed grade IV GBM patients. GSCs and NSCs were maintained in spheres in DMEM-F12 medium supplemented with 2 mM L-glutamine, 27.4 mM HEPES, B27, 20 ng ml^−1 EGF, 20 ng ml^−1 FGF and 5 μg ml^−1 heparin as described (Cui, Q., et al., supra). Established GBM cells were maintained in DMEM medium supplemented with 2 mM L-glutamine and 10% FBS. All cultures were mycoplasma-free as confirmed using MycoAlert PLUS Mycoplasma Detection Kit (Lonza). GSCs or NSCs were treated with PUS7 inhibitors at indicated concentration for 72 h. GSCs were treated with IFNα at indicated doses for 6 days.
GSC growth, sphere formation and limiting dilution assays were performed as described 9 Cui, Q., et al., supra). For growth, GSCs were seeded at 5×10^4 cells per well in 24-well plates and cultured for 7 days. Cell growth was monitored by cell counting using a hemocytometer. For sphere formation, GSCs were seeded at 1 cell per well in 96-well plates or 100 cells per well in 48-well plates and cultured for 2 weeks. Spheres were counted under microscope. For limiting dilution assay, GSCs were seeded into 96-well plates at 1, 5, 10, 20, 50 and 100 cells per well. The number of sphere-forming wells was recorded in two weeks. The limiting dilution analysis was performed using the extreme limiting dilution analysis software at http://bioinf.wehi.edu.au/software/elda.

## NC(=O)c1[nH]nc([C@@H]2O[C@H](CO)[C@@H](O)[C@H]2O)c1O [pyrazofurin]
FIG. 17B
  dose effect on the growth of PBT003 and PBT707 GSCs (significance): p<0.0001 for 0.5, 1, 2, 4, and 8 μM conditions
FIG. 17C
  dose effect on the growth of PBT0030, NSC005, and NSC010 (significance): p<0.0001 for 0.5, 1, 2, 4, and 8 μM conditions for PBT030 only
